According to patent publication US20250123282A1, “METHODS FOR EVALUATION AND TREATMENT OF TYROSINE KINASE INHIBITOR (TKI)-RESISTANT ACUTE MYELOID LEUKEMIA” (LOMA LINDA UNIVERSITY, priority 2021, published 2025):

Tests used:
MV4-11 cells [1] = experiment: FACS time course of CD44+pBAD+ and Ki67+CD33+CD44+ populations in TKI-treated MV4-11; type: cell-based, human
Excerpt: (§1) To follow the cell fate of TKI-treated MV4-11 and MOLM-14, culturing of blasts were continued by performing medium change every 2-3 days. […] The BAD protein is a pro-apoptotic member of the BCL-2 gene family, which is involved in initiating apoptosis. Dephosphorylated BAD is pro-apoptotic by binding BCL-2 and inactivating BCL-2, while phosphorylated BAD (pBAD) is anti-apoptotic by leaving BCL-2 free to inhibit BAX-triggered apoptosis.
(§2) Small Molecular Inhibitors and in vitro & ex vivo Treatment. […] The dose of 80 nM for the four TKIs was selected based on their dose-dependent cytotoxicity in previous reports. […] Both GILT and QUIZ were reported to start to suppress the tumorigenic clustering and c-Kit at the dose of 80 nM. […] The combination of 5 μM 5-Azacitidine (AZA) and 80 nM 1α,25-Dihydroxyvitamin D3 (VD3) was added to the experimental group similar to the previous report. As combination agents to treat blasts in vitro, one dose of 80 nM GILT with one dose of either 100 nM Venetoclax (BCL2 inhibitor), 10 μM (R)-Lisofylline (STAT4 inhibitor), 100 nM AZD1208 (PIM inhibitor), 500 nM PF-06826647 (TYK2 inhibitor), or 500 nM AT9283 (JAK2/3 inhibitor) were added to 1 ml of 1×10^6 cells for each experimental group in 24 well plates. Three days after the one dose treatment, cells were then collected for either analyses by FACS and qPCR, or re-plated into 24 well plates for continued culture. At different time points, re-plated cells were collected for analyses by FACS and qPCR. Medium change was performed every 2-3 days.
(§3) Flow Cytometry (FACS). Cells were harvested and examined for the expression of cell surface biomarkers (CD) and intracellular proteins by multichromatic FACS as previously described. About 1×10^4˜10^6 cells in 100 μl FACS buffer (PBS containing 1% FBS and 0.05% sodium azide) were stained with various fluorescence-conjugated antibodies specific for the desired cell surface proteins at 4° C. for 30 min. The surface-stained cells were then fixed and permeabilized using the appropriate reagents (e.g. the BD Pharmingen Cytofix/Cytoperm buffer) and stained with different fluorescence-conjugated antibodies specific for the desired intracellular proteins at 4° C. for 2 hours in the permeabilizing buffer (e.g. the BD Perm/Wash buffer). Concentrations of the Abs were used per the manufacturers' recommendations. Finally, the cells were washed twice in the permeabilizing buffer and twice in the FACS buffer before being analyzed on the BD FACSAria II. Data was analyzed using the FlowJo software (Tree Star Inc., Ashland, OR).

MV4-11 = conditions: 100 nM, 72-hour treatment in vitro; cited from earlier work
MOLM-14 cells [2] = experiment: FACS of TKI-treated MOLM-14 cells in vitro (viable blasts, pBAD); type: cell-based, human; conditions: 3 days after the treatment
Method: (§4) The AML cells were analyzed at different time points after exposure to TKI (3 days, 10 days, 20 days, and 28 days). […] After 3 days, FACS of the surface markers and intracellular proteins, including CD14, CD33, CD44, and Ki67, were performed. FIGS. 1A-1E depicts therapeutic effect of different TKIs on MV4-11 and MOLM-14 cells in vitro (N=6). […] The circles indicate the group of viable blasts located in a FACS plot and green arrows indicate the dying tendency of blasts which will become positive for viability dye during the next few days. FIGS. 1C and 1D are graphical representations of the cumulative FACS percentage data of viable MV4-11 and MOLM-14 cells. *P<0.05. […]
as §3, with “Cells were harvested and examined for the expression of cell surface biomarkers (CD) and intracellular proteins by multichromatic FACS as previously described.” left out, “Concentrations of the Abs were used per the manufacturers' recommendations.” left out, “Data was analyzed using the FlowJo software (Tree Star Inc., Ashland, OR).” left out

MV4-11 cells [3] = experiment: FACS of TKI-treated MV4-11 cells in vitro (viable blasts, Ki67, pBAD); type: cell-based, human; conditions: 3 days after the treatment
Method: as §4
as §3, with “Cells were harvested and examined for the expression of cell surface biomarkers (CD) and intracellular proteins by multichromatic FACS as previously described.” left out, “Concentrations of the Abs were used per the manufacturers' recommendations.” left out, “Data was analyzed using the FlowJo software (Tree Star Inc., Ashland, OR).” left out

MV4-11 cells [4] = experiment: Phase-bright imaging of re-growth of TKI-treated MV4-11; type: cell-based, human
Excerpt: as §1, §2
Imaging Acquisition. Phase-bright images were taken using an Olympus 1X71 inverted microscope and were processed using an Olympus cellSens Dimension 1.15 Imaging Software.

MOLM-14 cells [5] = experiment: Phase-bright imaging of re-growth of TKI-treated MOLM-14; type: cell-based, human; conditions: 10 days after TKI treatment
Excerpt: as §1
as §2, with “At different time points, re-plated cells were collected for analyses by FACS and qPCR. Medium change was performed every 2-3 days.” left out

primary AML BMMNC = experiment: Ex vivo combination treatment of primary AML BMMNC (FACS, imaging, qPCR); type: cell-based, human; conditions: newly diagnosed AML, Patient #5; 80 nM GILT, 50 uM BAY11-7821
Method: (§5) Whether targeting the MIF-CXCR2 signaling pathway would effectively treat AML blasts were investigated. First, the combination of GILT with ribosomal protein S19 (RPS19) on MV4-11 blasts was tested in vitro. RPS19, a MIF inhibitor, has been reported to suppress cisplatin-activated MIF-CD74-NFκB signaling pathway in acute kidney injury. […] The combination of 80 nM GILT with 50 uM SB225002, a CXCR2-inhibitor (CXCR2-I) on MV4-11 blasts in vitro were examined. […] The anti-leukemic effect of combining GILT with CXCR2-I on primary BMMNC ex vivo were examined. […] There may be alternative cytokine pathways compensating for the defect of MIF-CXCR2 pathways.
The combination of 80 nM GILT and 50 uM BAY11-7821 (a NFκB-I) was tested as a novel therapeutic approach for AML.
Next, the anti-leukemic effect of the combination was examined on primary BMMNC from refractory AML patients (Patient #7, Table 4).
Human Samples. AML bone marrow (BM) mononuclear cells (BMMNC) (Patients #1-7, Table 4) were obtained from the City of Hope National Medical Center (COHNMC). All donor patients signed an informed consent form. Sample acquisition was approved by the Institutional Review Boards at the LLUMC and the COHNMC in accordance with an assurance filed with and approved by the Department of Health and Human Services, and it met all requirements of the Declaration of Helsinki.
(§6) For MIF in vitro experiments, different doses of MIF were added to 1 ml of 1×10^6 MV4-11 cells or RAW264.7 cells for each experimental group in 24-well plates. Two days after the one dose treatment, cells were then collected for either analyses by FACS and qPCR. As combination agents to treat blasts in vitro or ex vivo, one dose of 80 nM GILT with one dose of different inhibitors were added to 1 ml of 1×10^6 MV4-11 cells or 1 ml of 0.5-1×10^6 primary AML BMMNC for each experimental group in 24-well plates. Dose-dependent experiments of CXCR2 inhibitor and NFκB inhibitor with or without 80 nM GILT were performed. […] Three days after the one dose treatment, cells were then collected for either analyses by FACS and qPCR.
as §3
RNA Isolation and Real-Time Polymerase Chain Reaction (qPCR) analysis. MV4-11 and MOLM-14 cells were cultured with the presence of TKI drugs for 72 hours or re-plated 28 days after the treatment of TKI drugs. Cells were isolated for RNA isolation and qPCR analysis as previously described. Total RNA was isolated using the RNeasy Micro Kit (Qiagen) according to the manufacturer's instruction. First-strand cDNA was synthesized using the SuperScript III Reverse Transcriptase (Invitrogen; Life Technologies). With an Applied Biosystems 7900HT Real-Time PCR machine, qPCR was performed and analyzed using known primers for the specific markers. The PCR conditions were 10 minutes at 95° C. followed by 40 cycles of 10 seconds at 95° C. and 15 seconds at 60° C. The relative expression level of a gene was determined using the ΔΔCt method and normalized to GAPDH.

MV4-11 blasts = experiment: GILT combined with MIF inhibitor or CXCR2 inhibitor on MV4-11 blasts in vitro (FACS); type: cell-based, human; conditions: dose-dependent experiments with or without 80 nM GILT
Method: as §5, §6, §3

[6] = system: RAW264.7 (a macrophage cell line); experiment: Recombinant human MIF added to RAW264.7 cultures (FACS Ki67); type: cell-based; conditions: 5 ng/ml MIF; 2 days
Method: To examine the role of MIF in the proliferation of AML blasts, different doses of recombinant human MIF peptides were added to the cell cultures of MV4-11 (AML blast cell line). […] To investigate how MIF affects immune cells, MIF was tested on RAW264.7 (a macrophage cell line). […] The findings are consistent with a previous report that primary AML blasts constitutively express MIF, stimulating bone marrow mesenchymal cells to release CXCL8 (IL-8), a ligand that also binds to CXCR2, to sustain blasts' proliferation. In addition, CXCL1/5/8 were routinely and highly released (a median level >1000 pg/mL) in the supernatants of culturing naïve AML patient cells ex vivo. […]
as §3, with “Cells were harvested and examined for the expression of cell surface biomarkers (CD) and intracellular proteins by multichromatic FACS as previously described.” left out, “Concentrations of the Abs were used per the manufacturers' recommendations.” left out, “Data was analyzed using the FlowJo software (Tree Star Inc., Ashland, OR).” left out

MV4-11 cells [7] = experiment: Recombinant human MIF added to MV4-11 cultures (FACS Ki67, qPCR); type: cell-based
Method: To examine the role of MIF in the proliferation of AML blasts, different doses of recombinant human MIF peptides were added to the cell cultures of MV4-11 (AML blast cell line). […] To investigate how MIF affects immune cells, MIF was tested on RAW264.7 (a macrophage cell line). […] The findings are consistent with a previous report that primary AML blasts constitutively express MIF, stimulating bone marrow mesenchymal cells to release CXCL8 (IL-8), a ligand that also binds to CXCR2, to sustain blasts' proliferation. In addition, CXCL1/5/8 were routinely and highly released (a median level >1000 pg/mL) in the supernatants of culturing naïve AML patient cells ex vivo.
For MIF in vitro experiments, different doses of MIF were added to 1 ml of 1×10^6 MV4-11 cells or RAW264.7 cells for each experimental group in 24-well plates. Two days after the one dose treatment, cells were then collected for either analyses by FACS and qPCR. […]
as §3, with “Cells were harvested and examined for the expression of cell surface biomarkers (CD) and intracellular proteins by multichromatic FACS as previously described.” left out, “Concentrations of the Abs were used per the manufacturers' recommendations.” left out
RNA Isolation and Real-Time Polymerase Chain Reaction (qPCR) analysis. […] With an Applied Biosystems 7900HT Real-Time PCR machine, qPCR was performed and analyzed using known primers for the specific markers. […] The relative expression level of a gene was determined using the ΔΔCt method and normalized to GAPDH.

[8] = MV4-11, 10 days after TKI treatment
[9] = MV4-11, 20 days after TKI treatment

In the case of `CNC(=O)c1cc(Oc2ccc(NC(=O)Nc3ccc(Cl)c(C(F)(F)F)c3)cc2)ccn1` [SORA, Sorafenib], the “population of viable CD44+pBAD+ cells” value (MV4-11 cells [1]; [8]) is reported as 0.24%, the “population of viable Ki67+CD33+CD44+ cells” value (MV4-11 cells [1]; [8]) is reported as 2.54% and the “population of viable CD44+pBAD+ cells” value (MV4-11 cells [1]; [9]) is reported as 0.8%. For the same molecule, the “population of viable Ki67+CD33+CD44+ cells” value (MV4-11 cells [1]; [9]) was 1.62%, the “population of viable Ki67+CD33+CD44+ cells” value (MV4-11 cells [1]; MV4-11, 28 days after TKI treatment) was 2.82% and the “apoptosis and cell cycle arrest in MV4-11” value (MV4-11) was “significantly induce”. For the same molecule, the “pBAD expression in MOLM-14 (FACS)” value (MOLM-14 cells [2]) was “significant increase”, the “pBAD expression in MV4-11 (FACS)” value (MV4-11 cells [3]) was “significant increase” and the “newly formed blast clusters (morphology)” value (MV4-11 cells [4]; 3 days after TKI treatment) was “observed”. The “re-growth / tumorigenic clusters of MV4-11” value (MV4-11 cells [4]; 10 days after TKI treatment) was “grew confluent” and the “re-growth / tumorigenic clusters of MOLM-14” value (MOLM-14 cells [5]) was “grew confluent”.

For `Cc1ccc(S(=O)(=O)C=CC#N)cc1` [NFκB-I, BAY11-7082 (BAY11-7821)], the “percentage of Ki67+CD33+ proliferating blasts” value (primary AML BMMNC) was 25%, the “percentage of viable CD33+CD13+ primary blasts” value (primary AML BMMNC) was 0.14% and the “most effective dose on MV4-11 based on the FACS analyses” value (MV4-11 blasts) was 50 µM.

B1: MIF: recombinant human macrophage migration inhibitory factor (Peprotech 300-69) (protein, UniProt P14174 2-115, looked up)
Macrophage migration …: PMFIVNTNVPRASVPDGFLSELTQQLAQATGKPPQYIAVHVVPDQLMAFGGSSEPCALCSLHSIGKIGGAQNRSYSKLLCGLLAERLRISPDRVYINYYDMNAANVGWNNSTFA
In the case of B1, the “RAW264.7 proliferation (Ki67)” value [6] is reported as “effectively suppressed”, the “MV4-11 proliferation (percentage of Ki67+)” value (MV4-11 cells [7]; 5 ng/ml MIF, the lowest dose, 2 days) is reported as “induce MV4-11's proliferation” and the “gene expressions of CXCL1, CXCL5, CXCL8 (IL-8), CDK4 and CYCLIN E1” value (MV4-11 cells [7]; MV4-11, different doses of MIF, qPCR) is reported as “effectively induce”. The “CXCR2 expression in MV4-11 blasts” value (MV4-11 cells [7]; exogenous recombinant MIF in vitro) was “effectively induced”.
